Measurements as given in PMC10507085, “Pharmacological inhibition of TBK1/IKKε blunts immunopathology in a murine model of SARS-CoV-2 infection” (Nature Communications, 2023).

What was measured:
Experiment in all cases: biochemical
Parameters in all cases: KINOMEscan competition binding, DNA-tagged kinase against immobilised ligand, qPCR read-out
Settings in all cases: read-out: Percent Control
ABL2 = ABL2 (Homo sapiens, UniProt P42684)
BLK = BLK (Homo sapiens, UniProt P51451)
BMPR1B = BMPR1B (Homo sapiens, UniProt O00238)
BMX = BMX (Homo sapiens, UniProt P51813)
CDKL3 = CDKL3 (Homo sapiens, UniProt Q8IVW4)
DCLK1 = DCLK1 (Homo sapiens, UniProt O15075)
EPHA4 = EPHA4 (Homo sapiens, UniProt P54764)
LCK = LCK (Homo sapiens, UniProt P06239)
LRRK2 = LRRK2 (Homo sapiens, UniProt Q5S007)
MAP3K10 = MAP3K10 (Homo sapiens, UniProt Q02779)
MAPK1 = MAPK1 (Homo sapiens, UniProt P28482)
MGC42105 = biological target: T1, MGC42105 (Homo sapiens, UniProt Q8IY84)
T1 construct: gene NIM1K

NEK2 = NEK2 (Homo sapiens, UniProt P51955)
NTRK2 = NTRK2 (Homo sapiens, UniProt Q16620)
NTRK3 = NTRK3 (Homo sapiens, UniProt Q16288)
PAK7 = biological target: T2, PAK7 (Homo sapiens, UniProt Q9P286)
T2 construct: gene PAK5

PLK3 = PLK3 (Homo sapiens, UniProt Q9H4B4)
PRKACB = PRKACB (Homo sapiens, UniProt P22694)
PTK2 = PTK2 (Homo sapiens, UniProt Q05397)
WNK3 = WNK3 (Homo sapiens, UniProt Q9BYP7)

EPHA4, sequence (P54764 whole entry): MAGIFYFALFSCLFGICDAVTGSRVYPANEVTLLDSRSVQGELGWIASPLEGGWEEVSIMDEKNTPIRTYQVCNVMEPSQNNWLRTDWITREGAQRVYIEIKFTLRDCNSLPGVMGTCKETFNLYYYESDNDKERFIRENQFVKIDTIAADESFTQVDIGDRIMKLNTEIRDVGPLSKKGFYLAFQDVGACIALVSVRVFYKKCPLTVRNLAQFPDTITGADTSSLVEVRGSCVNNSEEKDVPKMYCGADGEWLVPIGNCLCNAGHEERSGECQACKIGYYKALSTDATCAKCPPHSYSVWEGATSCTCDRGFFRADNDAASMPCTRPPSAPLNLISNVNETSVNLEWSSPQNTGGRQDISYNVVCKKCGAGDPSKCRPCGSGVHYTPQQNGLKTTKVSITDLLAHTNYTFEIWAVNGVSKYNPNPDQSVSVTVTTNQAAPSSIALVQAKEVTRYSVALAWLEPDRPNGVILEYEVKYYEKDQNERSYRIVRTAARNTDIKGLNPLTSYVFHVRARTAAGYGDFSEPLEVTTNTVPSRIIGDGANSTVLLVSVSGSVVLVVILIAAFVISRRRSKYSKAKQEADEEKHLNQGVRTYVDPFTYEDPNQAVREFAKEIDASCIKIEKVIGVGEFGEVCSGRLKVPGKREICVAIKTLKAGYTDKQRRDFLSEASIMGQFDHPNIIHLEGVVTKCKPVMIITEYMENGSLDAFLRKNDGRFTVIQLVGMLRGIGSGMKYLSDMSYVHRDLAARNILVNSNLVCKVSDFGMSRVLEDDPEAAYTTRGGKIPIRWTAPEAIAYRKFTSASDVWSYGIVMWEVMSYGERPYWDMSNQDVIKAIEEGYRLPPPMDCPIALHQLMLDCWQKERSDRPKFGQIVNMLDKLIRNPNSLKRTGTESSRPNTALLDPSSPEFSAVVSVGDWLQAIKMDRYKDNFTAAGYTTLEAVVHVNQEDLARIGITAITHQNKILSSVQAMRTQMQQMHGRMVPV
PTK2, sequence (Q05397 whole entry): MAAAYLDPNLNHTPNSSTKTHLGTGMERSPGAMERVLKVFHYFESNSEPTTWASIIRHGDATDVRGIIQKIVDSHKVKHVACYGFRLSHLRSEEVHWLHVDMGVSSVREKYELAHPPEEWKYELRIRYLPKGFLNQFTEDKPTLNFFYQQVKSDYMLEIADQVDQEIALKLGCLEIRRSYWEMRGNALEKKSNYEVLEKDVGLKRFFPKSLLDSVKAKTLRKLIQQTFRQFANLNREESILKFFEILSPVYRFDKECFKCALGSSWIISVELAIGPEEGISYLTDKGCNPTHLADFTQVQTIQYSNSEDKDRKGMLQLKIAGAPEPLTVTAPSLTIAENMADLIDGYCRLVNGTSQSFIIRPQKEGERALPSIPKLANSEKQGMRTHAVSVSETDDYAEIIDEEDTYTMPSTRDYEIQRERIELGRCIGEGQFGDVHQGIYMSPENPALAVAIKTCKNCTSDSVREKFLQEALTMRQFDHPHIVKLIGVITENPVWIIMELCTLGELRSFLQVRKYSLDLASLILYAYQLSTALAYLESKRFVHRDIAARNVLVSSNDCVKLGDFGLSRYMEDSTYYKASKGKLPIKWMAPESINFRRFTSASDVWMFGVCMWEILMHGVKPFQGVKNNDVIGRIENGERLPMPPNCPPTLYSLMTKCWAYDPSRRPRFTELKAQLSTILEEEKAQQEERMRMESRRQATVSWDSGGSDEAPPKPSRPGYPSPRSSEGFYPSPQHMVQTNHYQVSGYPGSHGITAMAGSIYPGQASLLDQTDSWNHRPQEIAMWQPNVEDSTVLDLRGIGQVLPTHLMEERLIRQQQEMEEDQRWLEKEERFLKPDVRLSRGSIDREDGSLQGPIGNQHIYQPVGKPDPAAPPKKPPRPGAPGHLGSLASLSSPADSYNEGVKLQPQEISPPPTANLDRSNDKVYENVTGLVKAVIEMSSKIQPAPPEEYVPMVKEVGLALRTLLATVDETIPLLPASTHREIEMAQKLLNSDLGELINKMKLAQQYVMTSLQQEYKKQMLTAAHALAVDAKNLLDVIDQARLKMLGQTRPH
NTRK3, sequence (Q16288 whole entry): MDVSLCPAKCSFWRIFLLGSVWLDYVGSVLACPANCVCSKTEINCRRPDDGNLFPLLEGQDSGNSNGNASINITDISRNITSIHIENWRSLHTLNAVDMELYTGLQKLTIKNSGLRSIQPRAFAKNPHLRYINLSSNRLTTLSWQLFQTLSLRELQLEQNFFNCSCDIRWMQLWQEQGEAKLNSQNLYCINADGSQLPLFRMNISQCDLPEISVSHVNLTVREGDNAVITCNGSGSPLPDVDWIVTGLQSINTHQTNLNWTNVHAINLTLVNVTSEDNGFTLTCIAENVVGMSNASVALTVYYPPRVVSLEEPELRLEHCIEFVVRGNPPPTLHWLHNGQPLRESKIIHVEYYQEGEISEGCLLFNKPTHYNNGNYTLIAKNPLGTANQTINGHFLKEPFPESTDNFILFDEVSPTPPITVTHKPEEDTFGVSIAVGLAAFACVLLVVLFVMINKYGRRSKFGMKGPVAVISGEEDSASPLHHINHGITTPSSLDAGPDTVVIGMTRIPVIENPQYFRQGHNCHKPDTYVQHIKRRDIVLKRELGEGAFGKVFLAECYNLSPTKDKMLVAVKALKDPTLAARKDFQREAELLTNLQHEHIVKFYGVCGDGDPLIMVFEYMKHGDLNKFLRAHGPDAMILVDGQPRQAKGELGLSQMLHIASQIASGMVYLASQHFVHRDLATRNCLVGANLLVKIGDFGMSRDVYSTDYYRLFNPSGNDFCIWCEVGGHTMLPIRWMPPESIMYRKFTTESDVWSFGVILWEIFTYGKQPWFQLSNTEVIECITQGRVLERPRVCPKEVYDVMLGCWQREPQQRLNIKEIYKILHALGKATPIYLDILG
T2 sequence (Q9P286 whole entry): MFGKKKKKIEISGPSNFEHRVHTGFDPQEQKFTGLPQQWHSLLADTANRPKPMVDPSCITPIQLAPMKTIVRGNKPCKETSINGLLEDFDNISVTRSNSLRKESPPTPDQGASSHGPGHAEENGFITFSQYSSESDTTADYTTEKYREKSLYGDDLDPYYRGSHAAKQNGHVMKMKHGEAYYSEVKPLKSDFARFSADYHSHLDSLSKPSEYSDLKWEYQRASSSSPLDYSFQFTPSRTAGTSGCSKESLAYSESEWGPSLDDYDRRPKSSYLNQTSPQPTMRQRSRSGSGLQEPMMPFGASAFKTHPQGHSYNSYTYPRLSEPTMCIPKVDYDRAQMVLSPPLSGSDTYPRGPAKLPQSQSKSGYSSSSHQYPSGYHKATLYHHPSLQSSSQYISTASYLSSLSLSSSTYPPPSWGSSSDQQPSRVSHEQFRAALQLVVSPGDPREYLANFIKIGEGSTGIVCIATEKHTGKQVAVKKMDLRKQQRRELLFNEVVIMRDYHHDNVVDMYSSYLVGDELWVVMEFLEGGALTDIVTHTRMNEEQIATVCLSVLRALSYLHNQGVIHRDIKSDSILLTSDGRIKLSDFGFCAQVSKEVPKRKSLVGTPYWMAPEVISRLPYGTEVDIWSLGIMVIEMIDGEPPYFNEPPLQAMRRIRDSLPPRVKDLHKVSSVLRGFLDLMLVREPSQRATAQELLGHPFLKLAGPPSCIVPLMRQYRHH
ABL2, sequence (P42684 whole entry): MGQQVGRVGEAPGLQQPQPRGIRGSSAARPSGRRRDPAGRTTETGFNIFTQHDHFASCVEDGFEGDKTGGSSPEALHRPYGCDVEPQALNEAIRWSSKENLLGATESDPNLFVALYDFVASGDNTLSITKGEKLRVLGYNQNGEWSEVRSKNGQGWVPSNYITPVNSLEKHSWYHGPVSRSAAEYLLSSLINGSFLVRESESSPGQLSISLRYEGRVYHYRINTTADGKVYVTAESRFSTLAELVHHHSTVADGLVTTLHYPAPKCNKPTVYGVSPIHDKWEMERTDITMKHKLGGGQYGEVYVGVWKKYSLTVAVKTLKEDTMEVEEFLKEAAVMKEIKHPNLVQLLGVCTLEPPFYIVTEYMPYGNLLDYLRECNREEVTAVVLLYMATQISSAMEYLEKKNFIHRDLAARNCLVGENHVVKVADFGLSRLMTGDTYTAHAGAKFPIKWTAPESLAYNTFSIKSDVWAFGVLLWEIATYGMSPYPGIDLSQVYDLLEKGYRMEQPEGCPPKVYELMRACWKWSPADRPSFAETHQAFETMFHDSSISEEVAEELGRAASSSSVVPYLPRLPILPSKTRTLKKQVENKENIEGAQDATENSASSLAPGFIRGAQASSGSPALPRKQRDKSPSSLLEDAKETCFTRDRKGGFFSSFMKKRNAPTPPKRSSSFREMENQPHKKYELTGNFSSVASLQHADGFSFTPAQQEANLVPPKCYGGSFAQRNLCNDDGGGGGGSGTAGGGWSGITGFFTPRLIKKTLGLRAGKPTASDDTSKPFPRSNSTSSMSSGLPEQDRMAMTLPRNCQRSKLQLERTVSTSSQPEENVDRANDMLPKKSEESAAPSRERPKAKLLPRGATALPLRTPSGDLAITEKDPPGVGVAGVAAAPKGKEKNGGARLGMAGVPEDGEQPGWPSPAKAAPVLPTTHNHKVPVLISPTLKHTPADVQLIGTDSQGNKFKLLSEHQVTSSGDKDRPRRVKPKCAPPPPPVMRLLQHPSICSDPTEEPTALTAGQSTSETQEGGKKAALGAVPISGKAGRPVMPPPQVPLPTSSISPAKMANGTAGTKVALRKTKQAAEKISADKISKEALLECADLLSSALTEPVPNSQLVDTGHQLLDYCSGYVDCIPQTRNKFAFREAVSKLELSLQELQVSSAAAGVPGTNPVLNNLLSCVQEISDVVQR

Q: With Oc1ccc(C2=Cc3ccc(O)cc3OC2)cc1 [compound 1, idronoxil] as the compound, how does the remaining binding at 10 µM (ABL2) read?
A: 79%

Q: What about the remaining binding at 10 µM (BLK) of the same compound?
A: 57%

Q: What about the remaining binding at 10 µM (BMPR1B) of the same compound?
A: 66%

Q: And the remaining binding at 10 µM (BMX)?
A: 75%

Q: What about the remaining binding at 10 µM (CDKL3) of the same compound?
A: 59%

Q: What about the remaining binding at 10 µM (DCLK1) of the same compound?
A: 100%

Q: What about the remaining binding at 10 µM (EPHA4) of the same compound?
A: 84%

Q: What about the remaining binding at 10 µM (LCK) of the same compound?
A: 60%

Q: What about the remaining binding at 10 µM (LRRK2) of the same compound?
A: 90%

Q: What about the remaining binding at 10 µM (MAP3K10) of the same compound?
A: 82%

Q: And the remaining binding at 10 µM (MAPK1)?
A: 100%

Q: What about the remaining binding at 10 µM (MGC42105) of the same compound?
A: 93%

Q: What about the remaining binding at 10 µM (NEK2) of the same compound?
A: 100%

Q: And the remaining binding at 10 µM (NTRK2)?
A: 62%

Q: And the remaining binding at 10 µM (NTRK3)?
A: 97%

Q: What about the remaining binding at 10 µM (PAK7) of the same compound?
A: 95%

Q: What about the remaining binding at 10 µM (PLK3) of the same compound?
A: 100%

Q: And the remaining binding at 10 µM (PRKACB)?
A: 88%

Q: And the remaining binding at 10 µM (PTK2)?
A: 100%

Q: What about the remaining binding at 10 µM (WNK3) of the same compound?
A: 80%
